Peptide text beside a SMILES is read from it.
Target: T1, wild-type mouse C140 receptor (Mus musculus, UniProt P55086)
T1 construct: Native receptors were produced by cloning the coding region of the receptor gene; expressed in transfected cells; host or cells: Xenopus laevis oocytes injected with capped cRNA from pSG-5 C140
T1 sequence (P55086 32-399 limits assumed): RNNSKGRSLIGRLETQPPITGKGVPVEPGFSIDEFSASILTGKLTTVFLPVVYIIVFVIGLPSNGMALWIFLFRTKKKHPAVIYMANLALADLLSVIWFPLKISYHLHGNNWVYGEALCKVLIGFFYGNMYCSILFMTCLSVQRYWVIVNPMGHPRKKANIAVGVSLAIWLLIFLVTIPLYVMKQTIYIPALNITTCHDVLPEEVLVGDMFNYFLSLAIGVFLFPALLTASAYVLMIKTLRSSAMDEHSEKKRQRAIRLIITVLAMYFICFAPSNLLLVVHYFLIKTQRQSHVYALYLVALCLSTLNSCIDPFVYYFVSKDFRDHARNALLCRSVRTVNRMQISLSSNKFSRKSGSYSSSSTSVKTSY
Test: 45Ca release by Xenopus oocytes expressing wild-type mouse C140 receptor
Type: cell-based
Conditions: Table 2; peptides at 100 μM; wild-type mouse C140 receptor in oocytes
Method: Agonist-induced increases in ^45 Ca release by oocytes expressing cRNA encoding C140 receptor or other recombinant cells producing C140 receptor are assessed by published techniques (Williams, J. A., et al., Proc Natl Acad Sci USA (1988) 85:4939-4943). Briefly, intracellular calcium pools are labeled by incubating groups of 30 oocytes in 300 μl calcium-free modified Barth's solution (MBSH) containing 50 μCi ^45 CaCl2 (10-40 mCi/mg Ca; Amersham) for 4 hours at RT. The labeled oocytes or cells are washed, then incubated in MBSH II without antibiotics for 90 minutes. Groups of 5 oocytes are selected and placed in individual wells in a 24-well tissue culture plate (Falcon 3047) containing 0.5 ml/well MBSH II without antibiotics. This medium is removed and replaced with fresh medium every 10 minutes; the harvested medium is analyzed by scintillation counting to determine ^45 Ca released by the oocytes during each 10-minute incubation. The 10-minute incubations are continued until a stable baseline of ^45 Ca release per unit time is achieved. Two additional 10-minute collections are obtained, then test medium including agonist is added and agonist-induced ^45 Ca release determined.
Oocytes from Xenopus laevis were harvested and prepared using published techniques (Coleman, A., in Hames, B. D., and Higgins, S. J., eds, Transcription and Translation: A Practical Approach, IRL Press, pp. 271-302; Williams, J. A., et al. Proc Natl Acad Sci USA (1988) 85:4939-4943]. To remove follicular cells, oocytes were incubated for 1.5 h with shaking in calcium-free Barth's containing 2 mg/ml each of collagenase 1A and hyaluronidase 1S. The oocytes were then washed five times in regular Barth's and incubated at 18° C. in Barth's medium containing 100 U/ml penicillin, 100 μg/ml streptomycin, and 2.5 mM sodium pyruvate. Stage V oocytes were selected and injected with 30 nl of cRNA (0.33 μg/μl water) or water alone, and then incubated with 0.25 ml of medium in groups of four/well in a 96-well culture plate. After 36 hours the oocytes were incubated with ^45 Ca (250 μCi/ml). After 12 h incubation the oocytes were washed and 0.2 ml of medium added and replaced every five minutes. The harvested medium was analyzed by scintillation counting. After five replacements to determine the baseline release of ^45 Ca, test medium with the agonist, e.g. SLIGRL (SEQ ID NO: 23), was added and the evoked ^45 Ca-release determined.
Oocytes were injected with capped cRNA (ca 10 ng) encoding wild-type mouse C140 receptor (WT) or either of the three mutant receptors 35Pro, 35Arg and 35His. After 36 hours, cRNA-injected and control water-injected, oocytes were loaded with ^45 Ca, and 12 hours thereafter peptide or trypsin-induced ^45 Ca release were determined as described above. The peptide SLIGRL (SEQ ID NO: 23) was added at 100 μM, and trypsin at 300 pM. The stimulation with the peptide was done on the same group of oocytes after the stimulation with trypsin. The data shown in Table 1 represent the mean of three replicate determinations, and denotes the increase compared to oocytes injected with water.
Various peptides were tested at 100 μM in the assay above using wild-type mouse C140 receptor, expressed in oocytes.

| Compound | Fold increase in 45Ca |
| --- | --- |
| CC[C@H](C)[C@H](NC(=O)[C@H](CC(C)C)NC(=O)[C@H](C)N)C(=O)NCC(=O)N[C@@H](CCCNC(=N)N)C(=O)N[C@@H](CC(C)C)C(=O)O [ALIGRL] (H-ALIGRL-OH) | 1.3 fold |
| CC[C@H](C)[C@H](NC(=O)[C@H](C)NC(=O)[C@@H](N)CO)C(=O)NCC(=O)N[C@@H](CCCNC(=N)N)C(=O)N[C@@H](CC(C)C)C(=O)O [SAIGRL] (H-SAIGRL-OH) | 0 fold |
| CC(C)C[C@H](NC(=O)[C@H](Cc1ccccc1)NC(=O)[C@H](Cc1ccccc1)NC(=O)[C@@H](N)CO)C(=O)N[C@@H](CCCNC(=N)N)C(=O)N[C@@H](Cc1c[nH]c2ccccc12)C(=O)O [SFFLRW, reference compound] (H-SFFLRW-OH) | 1.7 fold |
| CC(C)C[C@H](NC(=O)[C@H](CCCNC(=N)N)NC(=O)CNC(=O)[C@H](C)NC(=O)[C@H](CC(C)C)NC(=O)[C@@H](N)CO)C(=O)O [SLAGRL] (H-SLAGRL-OH) | 0 fold |
| CC[C@H](C)[C@H](NC(=O)[C@H](CC(C)C)NC(=O)[C@@H](N)CO)C(=O)N[C@@H](C)C(=O)N[C@@H](CCCNC(=N)N)C(=O)N[C@@H](CC(C)C)C(=O)O [SLIARL] (H-SLIARL-OH) | 4.3 fold |
| CC[C@H](C)[C@H](NC(=O)[C@H](CC(C)C)NC(=O)[C@@H](N)CO)C(=O)NCC(=O)N[C@@H](C)C(=O)N[C@@H](CC(C)C)C(=O)O [SLIGAL] (H-SLIGAL-OH) | 0 fold |
| CC[C@H](C)[C@H](NC(=O)[C@H](CC(C)C)NC(=O)[C@@H](N)CO)C(=O)NCC(=O)N[C@@H](CCCNC(=N)N)C(=O)N[C@@H](C)C(=O)O [SLIGRA] (H-SLIGRA-OH) | 8.5 fold |

From patent US6043212A, “Recombinant C140 receptor, its agonists and antagonists, and nucleic acids encoding the receptor” (COR Therapeutics, Inc., priority 1995, dated 2000)
